# Key:
# Assay in all cases: Pre-emergence/greenhouse herbicidal test, % damage
# Format in all cases: in vivo
# Datura = conditions: pre-emergence, after approximately 3 weeks
# Experimental: (§1) Customary formulations of the respective active compounds were used. Butafenacil was employed as Inspire® 100 EC, azafenidin as an 80 WG formulation and the compound of the formula (I-1) as a 70 WG formulation. The active compounds were used to prepare an aqueous spray mixture with 0.1% of Renex-36 as additive. Pre-emergence/greenhouse Seeds of the test plants are sown in standard soil. After 24 hours, the test compound or the combination of test compounds, is sprayed onto the soil surface in such a manner as to apply the amount of active compound per unit area desired in each case. The concentration of the spray mixture is chosen so that the desired amounts of active compound desired are applied in 500 l of water per ha. After the spray application, the plant containers are placed in the greenhouse under constant light and temperature conditions. After approximately 3 weeks, the degree of damage of the crop plants is scored in % damage in comparison with the development of the untreated control. The figures denote: 0%=no damage (as untreated control) 100%=Total destruction/damage
# Digitaria = conditions: pre-emergence, after approximately 3 weeks
# Experimental: as §1
# Xanthium = conditions: pre-emergence, after approximately 3 weeks
# Experimental: as §1
# Solanum = conditions: after approximately 3 weeks
# Experimental: as §1
# Galium = conditions: pre-emergence, after approximately 3 weeks
# Experimental: as §1
# Cassia = conditions: pre-emergence, after approximately 3 weeks
# Experimental: as §1
# Setaria = conditions: pre-emergence, after approximately 3 weeks
# Experimental: as §1
# Ipomea = conditions: pre-emergence, after approximately 3 weeks
# Experimental: as §1
# Alopecurus = conditions: pre-emergence, after approximately 3 weeks
# Experimental: as §1
# Abutilon = conditions: pre-emergence, after approximately 3 weeks
# Experimental: as §1
smiles,measurement,setting,value
"C=CCOC(=O)C(C)(C)OC(=O)c1cc(-n2c(=O)cc(C(F)(F)F)n(C)c2=O)ccc1Cl [Butafenacil, [1,1-dimethyl-2-oxo-2-(2-propenyloxy)]-ethyl 2-chloro-5-(3,6-dihydro-3-methyl-2,6-dioxo-4-trifluoromethyl-1(2H)-pyrimidinyl)-benzoate]",Datura observed,Datura; 2 g ai/ha,30%
same,Digitaria observed,Digitaria; 0.5 g ai/ha,20%
same,Digitaria observed,Digitaria; 1 g ai/ha,20%
same,Xanthium observed,Xanthium; 2 g ai/ha,0%
same,Solanum observed,"Solanum; pre-emergence, 0,5 g ai/ha",0%
same,Solanum observed,"Solanum; pre-emergence, 1 g ai/ha",0%
same,Solanum observed,"Solanum; pre-emergence, 2 g ai/ha",0%
same,Galium observed,Galium; 1 g ai/ha,0%
same,Cassia observed,Cassia; 0.5 g ai/ha,0%
same,Setaria observed,Setaria; 0.5 g ai/ha,0%
same,Setaria observed,Setaria; 2 g ai/ha,0%
same,Ipomea observed,Ipomea; 0.5 g ai/ha,0%
same,Alopecurus observed,Alopecurus; 0.5 g ai/ha,0%
same,Alopecurus observed,Alopecurus; 2 g ai/ha,0%
same,Abutilon observed,Abutilon; 2 g ai/ha,30%
"CC(C)c1nn(C(=O)NC(C)(C)C)c(=O)n1N [Compound (I-1), 4-amino-5-(1-methyl-ethyl)-2-(1,1-dimethyl-ethyl-aminocarbonyl)-2,4-dihydro-3H-1,2,4-triazol-3-one]",Datura observed,Datura; 60 g ai/ha,50%
same,Digitaria observed,Digitaria; 125 g ai/ha,40%
same,Xanthium observed,Xanthium; 125 g ai/ha,90%
same,Solanum observed,"Solanum; pre-emergence, 60 g ai/ha",90%
same,Galium observed,Galium; 125 g ai/ha,80%
same,Cassia observed,Cassia; 60 g ai/ha,30%
same,Setaria observed,Setaria; 125 g ai/ha,0%
same,Ipomea observed,Ipomea; 125 g ai/ha,50%
same,Alopecurus observed,Alopecurus; 125 g ai/ha,0%
same,Abutilon observed,Abutilon; 60 g ai/ha,50%

# From patent US6821926B1, “Carbamoyl triazolinone based herbicide” (Bayer Aktiengesellschaft, priority 1999, dated 2004)
